Literature values, collected in patent US20220218740A1, “OPIOID-FREE COMPOSITIONS FOR ANESTHESIOLOGICAL APPLICATIONS AND RELATED METHODS AND SYSTEMS” (Vaporworks Nursing Anesthesia Inc., priority 2020, published 2022).
Like-named read-outs stand apart in the source and are kept apart here.

Columns and labels:
[1] = infusion continued post-surgically
[2] = not given; remark: listed apart in the source

## C[C@@H]1C[C@H]2[C@@H]3CCC4=CC(=O)C=C[C@]4(C)[C@@]3(F)[C@@H](O)C[C@]2(C)[C@@]1(O)C(=O)COP(=O)(O)O [Dexamethasone, Dexamethasone Sodium phosphate]
In vivo
  onset time: two
  time until peak effect: at least 1 hour

## Cc1cccc([C@H](C)c2cnc[nH]2)c1C [Dexmedetomidine]
IV
  peek effect: 15 min

## CCN(CC)CC(=O)Nc1c(C)cccc1C [Lidocaine]
[1]
  Peak serum levels occur after medication administration: serum levels occur 24 hours

## COC(=O)CCc1ccc(OCC(O)CNC(C)C)cc1 (stereo not shown) [esmolol]
[2]; in vivo
  Duration: > 20 min
  Peak: 2 to 6 min
[2]; in words
  Onset: Immediate

## CC(CCc1ccccc1)NCC(O)c1ccc(O)c(C(N)=O)c1 (stereo not shown) [labetalol]
[2]; in vivo
  Duration: up to 4 hours
  Onset: 2 to 5 min
  Peak: 5 to 15 min
